{"source": "patent US20240423968A1", "about": "“USE OF PROTEASOME-TARGETING SMALL MOLECULES TO MITIGATE MUSCLE WASTING” (The Board of Regents of the University of Texas System, priority 2023, published 2024)", "key": {"[1]": {"molecular_target": "20S human housekeeping proteasome (Homo sapiens, UniProt P28074)", "assay": "20S ChT-L proteolytic activity assay (Suc-LLVY-AMC hydrolysis, Rpt5 peptide-activated)", "assay_type": "biochemical", "conditions": "for activity against 20S ChT-L proteolysis, in words: SAR comparison", "description": "Compounds were evaluated for proteasome activity using the 20S human housekeeping proteasome. It was activated with the Rpt5 derived 10-residue peptide that contains the C-terminal HbYX (hydrophobic-Tyr-any AA) motif activating the proteasome in trans and to some extend mimic the activation by the 19S regulatory particle (Osmulski and Gaczynska (2013) Molecular pharmacology 84: 104-113; Smith et al. (2006) J. Struct. Biol. 156: 72-83; Smith et al. (2007) Mol. Cell 27: 731-744). Proteolytic activity was monitored over time using a fluorogenic peptide substrate specific for the chymotrypsin-like active center (ChT-L, Suc-LLVY-AMC) in the presence of a concentration range of the inhibitors. In this activity assay, hydrolysis of the substrate results in release of the highly fluorescent aminomethylcoumarin fluorophore. The linear portions of the fluorescence intensity plots were used to calculate the rates of Suc-LLVY-AMC hydrolysis and an IC50 (concentration of drug at which 50% of the maximum rate inhibition occurs) is determined."}, "C2C12 myotubes": {"test_system": "C2C12 myotubes", "assay": "Myotube morphology (diameters) in the TNFα-induced muscle atrophy cell culture model", "assay_type": "cell-based, mouse", "conditions": "for myotube morphology when applied alongside TNFα: TNFα 15 ng/ml for 72 hours, compound added together with TNFα; for effect on cell morphology in the control: compound without TNFα", "description": "Mouse C2C12 myoblasts were purchased in American Tissue Type Collection (ATCC CRL-1772) were cultured in Dulbecco's modified Eagle's medium (DMEM) supplementec with 15% fetal bovine serum (FBS) and penicillin/streptomycin, at 37° C. and 5% CO2. After reaching confluence the myoblasts were differentiated into myotubes by culturing for 72 hours under low-serum conditions (2% horse serum, 0.5 microgram/ml insulin. After that, model muscle atrophy was induced by the treatment with tumor necrosis factor alpha (TNFα) at 15 ng/ml for 72 hours. Vehicle (dimethylsulfoxide; DMSO) or desired compounds (B1, C3, bortezomib) were added to the culture medium together with TNFα.\nMyotubes were visualized as described in Eric J. Stevenson, et al., Journal of Applied Physiology 2005 98:4, 1396-1406. All myotubes analyzed in randomly selected microscope fields, with three diameters per tube and at least 50 myotubes analyzed per experimental point.\nThe diameters of C2C12 myotubes can be utilized to look for indications of degeneration."}, "[2]": {"test_system": "C2C12-derived mouse myocytes", "assay": "Cellular AFM: cell surface isotropy (cytoskeleton organization) of model myotubes", "assay_type": "cell-based", "conditions": "compound accompanies TNFα; AFM roughness analysis", "description": "Cultured cells growing on dishes were scanned with a Catalyst Atomic Force Microscope (Bruker) mounted on a Nikon Ti inverted epifluorescent microscope. Nanomechanical parameters of cells were collected in the Quantitative Nanomechanical Mapping (PF-QNM) mode of the AFM. Before AFM imaging, optical images were recorded for each cell. SCANASYST-AIR probes were used for imaging after their spring constant was determined with the thermal tuning. Cell boundaries were located with peak force error (PFE) AFM images and further verified with height images. […] Mode values of the mechanical parameters for individual cells were calculated from the corresponding distribution histograms. The Texture Aspect Ratio, as a measure of the spatial isotropy or directionality of the surface texture was calculated from the square height images of cells after applying the first order flatten function (Roughness Analysis in NanoScope Analysis v. 1.7). […]\nCellular atomic force microscopy (AFM) of C2C12-derived mouse myocytes was utilized to show the effect of TNFα on the cytosketon organization of the myotube surface patterns (FIG. 5). The regularity of the pattern can be assessed by roughness analysis of the AFM images.\nThe surface isotropy parameter can quantify the regularity of the patterns observed in AFM. […]"}, "C2C12 cells": {"test_system": "C2C12 cells", "assay": "Principal component analysis of AFM-assessed mechanical parameters of model myotubes", "assay_type": "cell-based, mouse", "conditions": "C2C12 cells treated with TNFα plus compound", "description": "Cultured cells growing on dishes were scanned with a Catalyst Atomic Force Microscope (Bruker) mounted on a Nikon Ti inverted epifluorescent microscope. Nanomechanical parameters of cells were collected in the Quantitative Nanomechanical Mapping (PF-QNM) mode of the AFM. Before AFM imaging, optical images were recorded for each cell. SCANASYST-AIR probes were used for imaging after their spring constant was determined with the thermal tuning. Cell boundaries were located with peak force error (PFE) AFM images and further verified with height images. Nanomechanical parameters of cells were captured in three separate PF-QNM channels: elasticity (or stiffness—the Young's modulus), deformation and adhesion. Analysis of these parameters was performed with NanoScope Analysis software v. 1.7 (Osmulski, P. A., et al., Cancer Res. 2021 Aug. 1; 81(15):4110-4123). Force curves were fit to the Sneddon model. Mode values of the mechanical parameters for individual cells were calculated from the corresponding distribution histograms. The Texture Aspect Ratio, as a measure of the spatial isotropy or directionality of the surface texture was calculated from the square height images of cells after applying the first order flatten function (Roughness Analysis in NanoScope Analysis v. 1.7).\nMouse C2C12 myoblasts were purchased in American Tissue Type Collection (ATCC CRL-1772) were cultured in Dulbecco's modified Eagle's medium (DMEM) supplementec with 15% fetal bovine serum (FBS) and penicillin/streptomycin, at 37° C. and 5% CO2. […]\nPrincipal component analysis (PCA) was utilized to evaluate the AFM-assessed mechanical parameters of model myotubes in C2C12 cells treated with TNFα alone or with compounds B1 or C3. […]"}, "26S holoenzyme": {"test_system": "26S holoenzyme", "assay": "26S activity in lysates (in-gel activity assay, Suc-LLVY-MCA overlay)", "assay_type": "cell-based, mouse", "conditions": "model-wasted cells", "source_text": "(§1) The mechanism of the anti-wasting action of proteasome modulators can be probed by measuring the 26S activity in lysates and measuring the levels of autophagy-related protein 7 (ATG7) in lysates. Excessive activity of 26S holoenzyme bears prime responsibility for degradation of muscle proteins during wasting. […] Autophagy, alongside proteasome pathway, aggravates degeneration."}, "[3]": {"test_system": "autophagy-related protein 7 (ATG7)", "assay": "Levels of autophagy-related protein 7 (ATG7) in lysates (Western blotting)", "assay_type": "cell-based, mouse", "conditions": "model-wasted cells", "source_text": "as §1"}, "[4]": {"test_system": "myofibers in quadriceps of tumor-bearing mice", "assay": "In vivo mouse model of cancer cachexia (nude mice xenografted with PC3 cells), quadriceps myofiber diameters, H&E", "description": "The mouse model of cancer-related muscle wasting consistent of nude mice xenografted with human cultured androgen-resistant prostate cancer PC3 cells. The mice were treated intra-tumorally (IT) with the vehicle (dimethylsulfoxide; DMSO); 8 control mice) or with 10 mg/kg of compound 3. Three injections per week (Mondays, Wednesdays, and Fridays) were carried for three weeks. After that, mice were sacrificed and quadriceps muscle tissues were preserved by standard formalin fixing. Muscle tissue slices were stained with hematoxilin and eosin (H&E standard staining) to visualize muscle fibers and enable myofiber diameter measurements under a standard microscope. Myofibers for 4 control (vehicle-treated) and 4 compound 3-treated mice were measured.\nThe quadriceps muscle in tumor-bearing mice treated with C3 […] a weeks for three weeks was compared to control using H&E-stained tissues slices (FIG. 10). Frequency analysis of diameters of myofibers (400 myofibers each) from tumor-bearing mice (4 each of the control-vehicle and c3 (10 mg/kg)) was performed (FIG. 11)."}, "[5]": {"conditions": "Table 2, pipecolic acid derivatives, ChT-L activity of 20S, read-out: IC50"}, "[6]": {"conditions": "Table 3, proline derivatives, ChT-L activity of 20S, read-out: IC50"}, "[7]": {"conditions": "read-out: IC50, ChT-L activity of the 20S proteasome"}}, "note": "pIC50: −log10 of the molar value. Read-outs that look alike come from different tables or passages of the source."}
{"smiles": "O=C(OCCCc1ccccc1)[C@@H]1CCCCN1C(=O)OCc1ccccc1", "note": "[Compound 8]", "values": [{"measurement": "activity against 20S ChT-L proteolysis, in words", "setting": "[1]", "value": "significantly reduced its activity"}, {"measurement": "pIC50", "setting": "[1]; [5]", "value": 5.59}]}
{"smiles": "O=C(OCCc1ccccc1)[C@@H]1CCCN1C(=O)OCc1ccccc1", "note": "[Compound 14]", "values": [{"measurement": "activity against 20S ChT-L proteolysis, in words", "setting": "[1]", "value": "decreased activity"}, {"measurement": "pIC50", "setting": "[1]; [6]", "value": 4.72}]}
{"smiles": "O=C(OCc1ccccc1)[C@@H]1CCCN1C(=O)OCc1ccccc1", "note": "[Compound 15]", "values": [{"measurement": "activity against 20S ChT-L proteolysis, in words", "setting": "[1]", "value": "decreased activity"}, {"measurement": "pIC50", "setting": "[1]; [6]", "value": 4.47}]}
{"smiles": "COc1cc(CCCOC(=O)[C@@H]2CCCCN2C(=O)OCc2ccccc2)cc(OC)c1OC", "note": "[Compound 3]", "values": [{"measurement": "pIC50", "setting": "[1]; [5]", "value": 5.70}, {"measurement": "pIC50", "setting": "[1]; [7]", "value": 5.51}, {"measurement": "myotube morphology when applied alongside TNFα", "setting": "C2C12 myotubes", "value": "restored the morphogy to control-like status"}, {"measurement": "effect on cell morphology in the control", "setting": "C2C12 myotubes", "value": "no effect on the cell morphology"}, {"measurement": "cell surface patterning (surface isotropy)", "setting": "[2]", "value": "remains control-like"}, {"measurement": "AFM-assessed mechanical parameters (PCA phenotype)", "setting": "C2C12 cells", "value": "preserve the control-like phenotypes"}, {"measurement": "26S activity in lysates", "setting": "26S holoenzyme", "value": "mitigates the activity"}, {"measurement": "autophagy (ATG7 levels in lysates)", "setting": "[3]", "value": "does not affect or mitigates autophagy"}, {"measurement": "diameters of myofibers (frequency analysis)", "setting": "[4]; 400 myofibers each, 4 mice each, 10 mg/kg vs control-vehicle, difference significant at p<1.47×10^−21", "value": "Higher values of myofiber diameters"}, {"measurement": "myofiber morphology in quadriceps", "setting": "[4]; tumor-bearing mice, 10 mg/kg intra-tumorally, three weeks, vs vehicle", "value": "improved myofiber morphology"}]}
{"smiles": "CCCOC(=O)[C@@H]1CCCCN1C(=O)OCc1ccccc1", "note": "[Compound 9]", "values": [{"measurement": "pIC50", "setting": "[1]; [5]", "value": "< 4.30"}]}
{"smiles": "COc1cc(CCCOC(=O)[C@@H]2CCCN2C(=O)OCc2ccccc2)cc(OC)c1OC", "note": "[Compound 12]", "values": [{"measurement": "activity against 20S ChT-L proteolysis, in words", "setting": "[1]", "value": "modest activity"}, {"measurement": "pIC50", "setting": "[1]; [6]", "value": 4.62}]}
{"smiles": "O=C(O)[C@@H]1CCCCN1C(=O)OCc1ccccc1", "note": "[Compound 10]", "values": [{"measurement": "pIC50", "setting": "[1]; [5]", "value": "< 4.30"}]}
{"smiles": "COc1cc(CCCOC(=O)C2CCCCN2C(=O)C(=O)C2CCCCC2)cc(OC)c1OC", "note": "(racemic) [B1]", "values": [{"measurement": "pIC50", "setting": "[1]; [5]", "value": 5.24}, {"measurement": "myotube morphology when applied alongside TNFα", "setting": "C2C12 myotubes", "value": "restored the morphogy to control-like status"}, {"measurement": "effect on cell morphology in the control", "setting": "C2C12 myotubes", "value": "no effect on the cell morphology"}, {"measurement": "cell surface patterning (surface isotropy)", "setting": "[2]", "value": "remains control-like"}, {"measurement": "AFM-assessed mechanical parameters (PCA phenotype)", "setting": "C2C12 cells", "value": "preserve the control-like phenotypes"}, {"measurement": "26S activity in lysates", "setting": "26S holoenzyme", "value": "mitigates the activity"}, {"measurement": "autophagy (ATG7 levels in lysates)", "setting": "[3]", "value": "does not affect or mitigates autophagy"}]}
{"smiles": "O=C(OCCCc1ccccc1)[C@@H]1CCCN1C(=O)OCc1ccccc1", "note": "[Compound 13]", "values": [{"measurement": "pIC50", "setting": "[1]; [7]", "value": 5.18}]}
{"smiles": "COc1cc(CCCOC(=O)[C@@H]2CCCCN2C(=O)OCC(C)C)cc(OC)c1OC", "note": "[Compound 4]", "values": [{"measurement": "pIC50", "setting": "[1]; [7]", "value": 4.82}]}
{"smiles": "COc1cc(CCOC(=O)[C@@H]2CCCCN2C(=O)OCc2ccccc2)cc(OC)c1OC", "note": "[Compound 6]", "values": [{"measurement": "pIC50", "setting": "[1]; [5]", "value": 4.70}]}
{"smiles": "COc1cc(CCCOC(=O)[C@@H]2CCCN(C(=O)OCc3ccccc3)C2)cc(OC)c1OC", "note": "[Compound 11]", "values": [{"measurement": "pIC50", "setting": "[1]; [5]", "value": 4.83}]}
{"smiles": "COC(=O)N1CCCC[C@H]1C(=O)OCCCc1cc(OC)c(OC)c(OC)c1", "note": "[Compound 5]", "values": [{"measurement": "activity against 20S ChT-L proteolysis, in words", "setting": "[1]", "value": "completely abrogated activity"}, {"measurement": "pIC50", "setting": "[1]; [5]", "value": "< 4.30"}]}
{"smiles": "COc1cc(COC(=O)[C@@H]2CCCCN2C(=O)OCc2ccccc2)cc(OC)c1OC", "note": "[Compound 7]", "values": [{"measurement": "activity against 20S ChT-L proteolysis, in words", "setting": "[1]", "value": "significantly reduced its activity"}, {"measurement": "pIC50", "setting": "[1]; [5]", "value": 4.70}]}
{"smiles": "COc1cc(CCCOC(=O)C2CCCCN2C(=O)OCc2ccccc2)cc(OC)c1OC", "note": "(racemic) [Compound 2]", "values": [{"measurement": "pIC50", "setting": "[1]; [7]", "value": 4.94}]}
{"smiles": "CC(C)C[C@H](NC(=O)[C@H](Cc1ccccc1)NC(=O)c1cnccn1)B(O)O", "note": "[bortezomib, reference compound]", "values": [{"measurement": "myotube morphology when applied alongside TNFα", "setting": "C2C12 myotubes", "value": "failed to protect the myotubes"}, {"measurement": "effect on cell morphology in the control", "setting": "C2C12 myotubes", "value": "harmed the cells"}, {"measurement": "AFM-assessed mechanical parameters (PCA phenotype)", "setting": "C2C12 cells", "value": "does not protect the phenotypes"}, {"measurement": "autophagy (ATG7 levels in lysates)", "setting": "[3]", "value": "upregulates autophagy"}]}
